Values of other authors in patent publication US20190269627A1, “MEMANTINE COMBINATIONS AND USE” (Chase Pharmaceuticals Corporation, priority 2016, published 2019).

Test system: mice
Conditions: 2 mg/kg

Compound: CC12CC3CC(C)(C1)CC(N)(C3)C2 [memantine, 3,5-dimethyladamantan-1-amine]
- effect on scopolamine-induced learning deficits in the water maze: reverses scopolamine-induced learning deficits
